According to ChEMBL document CHEMBL1201862, “PubChem BioAssay data set” (2004):
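All cell lines were grown in 96-well plates and treated with compound for 48 hours. GI50 marks 50% less growth.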 Calls of active or inactive are those of the source. Cut-off read from the data, not from the text of the source: active = GI50 up to about 1.1 µM and inactive = higher.

Experiments:
Assay in all cases: NCI-60 cell line screen, 48 h
[1] = system: NCI-H226
[2] = system: OVCAR-5
[3] = system: HL-60
[4] = system: HOP-62
[5] = system: HCT-116
[6] = system: SK-OV-3
[7] = system: MDA-N
[8] = system: MDA-MB-231
[9] = system: NCI-H23
[10] = system: LXFL 529
[11] = system: IGROV-1
[12] = system: NCI-H522
[13] = system: HOP-92
[14] = system: A549
[15] = system: SK-MEL-28
[16] = system: ACHN
[17] = system: DU-145
[18] = system: Hs-578T
[19] = system: EKVX

## COc1ccc(OC(=O)N2C/C(=C\c3ccccc3)C(=O)/C(=C/c3ccccc3)C2)cc1
[1]
  GI50: 10.1 µM (inactive)
[2]
  GI50: 7.64 µM (inactive)
[3]
  GI50: 0.746 µM (active)
[4]
  GI50: 8.15 µM (inactive)
[5]
  GI50: 0.355 µM (active)
[6]
  GI50: 8.69 µM (inactive)
[7]
  GI50: 1.76 µM (inactive)
[8]
  GI50: 3.21 µM (inactive)
[9]
  GI50: 5.05 µM (inactive)
[10]
  GI50: 2.64 µM (inactive)
[11]
  GI50: 5.6 µM (inactive)
[12]
  GI50: 2.05 µM (inactive)
[13]
  GI50: 19.1 µM (inactive)
[14]
  GI50: 15.2 µM (inactive)
[15]
  GI50: 2.14 µM (inactive)
[16]
  GI50: 3.94 µM (inactive)
[17]
  GI50: 24.9 µM (inactive)
[18]
  GI50: 2.11 µM (inactive)
[19]
  GI50: 16.6 µM (inactive)
